Where a name gives a salt, the structure may show the parent alone. Read-outs that look alike come from different tables or passages of the source.
Assays:
human eosinophils = experiment: Binding inhibitory test of chemokine ([125I]-eotaxin) to human eosinophils; conditions: 50 pmol/L [125I]-eotaxin, 2x10^5 eosinophils, 25°C, 1 hr; read-out: IC50 (concentration of test compound necessary for decreasing binding of [125I]-eotaxin to human eosinophils by 50%)
Experimental: Binding Inhibitory Test of Chemokine to Human Eosinophils
Human eosinophils were separated by the CD16 negative selection method from anticoagulation-treated peripheral blood of healthy subject (e.g., J. Immunol. Methods, vol. 145, pages 105-110, 1991). The separated eosinophils (2×10^5 cells), 50 pmol/L[^125I]-eotaxin (2000 Ci/mmoL, manufactured by Amersham Pharmacia Biotech) and a test compounds were mixed in 0.1 mL of binding buffer (50 mmol/L HEPES, 1 mmol/L CaCl2, 5 mmol/L MgCl2, 0.5% bovine serum albumin (BSA), 0.1% sodium azide, pH 7.4), and the mixture was incubated in a multiscreen plate (manufactured by MILLIPORE) at 25° C. for 1 hr. After incubation, the reaction mixture in the multiscreen plate was filtered by vacuum manifold, and washed with 0.6 mL of a cold washing buffer (50 mmol/L HEPES, 1 mmol/L CaCl2, 5 mmol/L MgCl2, 0.5 mol/L NaCl, 0.1% sodium azide, pH 7.4), and the radioactivity maintained on the filter was measured. […] The IC50 values (concentration of test compound necessary for decreasing binding of [^125I]-eotaxin to human eosinophils by 50%) of some of the compounds of the present invention were as follows.

CCR3 = target: T1, CCR3 (Homo sapiens, UniProt P51677); experiment: Effect on intracellular calcium concentration in eosinophils upon CCL11 stimulation; format: cell-based; conditions: peripheral blood eosinophils of healthy subject, agonist CCL11 1.0 nmol/L, compound 3 min before stimulation, Fura-2 AM; read-out: IC50 (50% suppression of the increase in the intracellular calcium concentration)
T1 construct: Eosinophils separated from peripheral blood of healthy subject; endogenous in cells; host or cells: eosinophils separated from peripheral blood of healthy subject
T1 sequence (P51677 1-355): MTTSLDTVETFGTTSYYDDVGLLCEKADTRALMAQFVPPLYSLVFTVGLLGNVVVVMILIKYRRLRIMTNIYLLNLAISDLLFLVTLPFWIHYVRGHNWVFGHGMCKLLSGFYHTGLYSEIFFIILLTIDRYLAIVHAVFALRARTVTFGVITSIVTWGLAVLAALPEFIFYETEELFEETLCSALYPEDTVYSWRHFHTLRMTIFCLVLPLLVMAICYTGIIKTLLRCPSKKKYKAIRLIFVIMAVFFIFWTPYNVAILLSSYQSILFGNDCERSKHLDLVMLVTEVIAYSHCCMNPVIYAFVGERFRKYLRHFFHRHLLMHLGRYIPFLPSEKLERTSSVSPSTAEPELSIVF
Experimental: Effect on Intracellular Calcium Concentration
The effect of the compound of the present invention on intracellular calcium mobilization in peripheral blood eosinophils of healthy subject upon CCL11 stimulation was examined by the following method.
Eosinophils separated from peripheral blood of healthy subject were suspended in 0.5% bovine serum albumin-containing phosphate buffered saline, and incubated at 37° C. for 45 min in the presence of 5 μmol/L of Fura-2 AM (manufactured by DOJINDO LABORATORIES).
After incubation, the cells were washed 3 times with a measurement buffer (10 mmol/L HEPES, and 0.5% bovine serum albumin-containing hanks' balanced salt solution) to remove Fura-2 AM that was not incorporated into the cells.
Finally, the cells were adjusted to 1×10^6 cells/mL with the measurement buffer and preserved in a dark place until measurement. The intracellular calcium was measured using FDSS3000 manufactured by Hamamatsu Photonics K.K. In other words, the cell suspension (0.1 mL) loaded with Fura-2 AM was placed in a 96 well plate for measurement, the fluorescence intensity to the excitation light at wavelengths 340 nm and 380 nm was measured by FDSS3000, the ratio of the fluorescence intensity to the excitation light at these two wavelengths was determined, based on which the intracellular calcium concentration was calculated. As the agonist, used was CCL11 (1.0 nmol/L), which is a CCR3 selective ligand, and the antagonistic activity was determined as 50% suppression rate (IC50 value) of the increase in the intracellular calcium concentration, when eosinophils were treated with various concentrations of the compound of the present invention at 3 min before agonist stimulation.

[1] = test system: mouse ovalbumin (OVA) induced allergic and biphasic ear edema; experiment: Antigen (OVA) induced allergic and biphasic ear edema model; format: in vivo; conditions: male BALB/c mice, oral once a day from 2 days before induction, 3 or 10 mg/kg tested
Experimental: 3: Effect on Antigen Induced Allergic and Biphasic Ear Edema Model
The in vivo effect of the compound of the present invention was examined using a mouse ovalbumin (OVA) induced allergic and biphasic ear edema model. The model was prepared according to the method of Sugawara et al. (Allergy & Clinical Immunology International, Supplement No. 2, P 785, 2000). In other words, male BALB/c mice were immunized by intraperitoneal injection with 10 μg of OVA and 1 mg of aluminum hydroxide gel (Alum). At 14 days after immunization, OVA (5 μg) were subcutaneously injected to the both ears of the mouse, whereby ear edema was induced. The thickness of the ears was measured using a dial sickness gauge immediately before subcutaneous injection and 1 and 24 hrs after subcutaneous injection of OVA. The compound of the present invention was suspended in a vehicle, 0.5% hydroxypropylmethyl cellulose solution, and orally administered at 3 mg/kg or 10 mg/kg once a day using an orally gavage needle from 2 days before ear edema induction.

[2] = ear thickness 1 hr after OVA, read-out: Dose that showed a significant suppressive action vs vehicle, Immediate phase
[3] = ear thickness 24 hrs after OVA, read-out: Dose that showed a significant suppressive action vs vehicle, Late phase

SMILES	IC50 (human eosinophils)	IC50 (CCR3)	minimal effective dose [1, 2]	minimal effective dose [1, 3]
COc1ccc(-c2csc(SCC(=O)NC[C@H]3CN(Cc4ccc(Cl)c(Cl)c4)CCO3)n2)cc1OC [Example 13, (2S)-N-{[4-(3,4-dichlorobenzyl)morpholin-2-yl]methyl}-[4-(3,4-dimethoxyphenyl)thiazol-2-ylthio]acetamide]	0.4 nM			
Nc1cccc(-c2csc(SCC(=O)NC[C@H]3CN(Cc4ccc(Cl)c(Cl)c4)CCO3)n2)c1 [Example 9, (2S)-[4-(3-aminophenyl)thiazol-2-ylthio]-N-{[4-(3,4-dichlorobenzyl)morpholin-2-yl]methyl}acetamide]	12.7 nM			
O=C(CSc1nc(-c2ccncc2)cs1)NC[C@H]1CN(Cc2ccc(Cl)c(Cl)c2)CCO1 [Example 11, (2S)-N-{[4-(3,4-dichlorobenzyl)morpholin-2-yl]methyl}-[4-(pyridin-4-yl)thiazol-2-ylthio]acetamide]	0.8 nM			
NC(=O)c1cc(-c2csc(SCC(=O)NC[C@H]3CN(Cc4ccc(Cl)c(Cl)c4)CCO3)n2)ccc1O [Example 10, (2S)-[4-(3-carbamoyl-4-hydroxyphenyl)thiazol-2-ylthio]-N-{[4-(3,4-dichlorobenzyl)morpholin-2-yl]methyl}acetamide]	2.4 nM			
O=C(O)Cc1csc(SCC(=O)NC[C@H]2CN(Cc3ccc(Cl)c(Cl)c3)CCO2)n1 [Example 2, (2S)-[4-(carboxymethyl)thiazol-2-ylthio]-N-{[4-(3,4-dichlorobenzyl)morpholin-2-yl]methyl}acetamide]	2.4 nM	1.8 nM	3 mg/kg	3 mg/kg

Further lines, with some results ahead:

IC50 (human eosinophils)	IC50 (CCR3)	SMILES	minimal effective dose [1, 2]	minimal effective dose [1, 3]
0.9 nM	2.5 nM	NC(=O)CNC(=O)c1csc(SCC(=O)NC[C@H]2CN(Cc3ccc(Cl)c(Cl)c3)CCO2)n1 [Example 17, (2S)-{4-[(2-amino-2-oxoethyl)aminocarbonyl]thiazol-2-ylthio}-N-{[4-(3,4-dichlorobenzyl)morpholin-2-yl]methyl}acetamide]	3 mg/kg	3 mg/kg
0.4 nM	1.6 nM	NC(=O)c1csc(SCC(=O)NC[C@H]2CN(Cc3ccc(Cl)c(Cl)c3)CCO2)n1 [Example 15, (2S)-(4-carbamoylthiazol-2-ylthio)-N-{[4-(3,4-dichlorobenzyl)morpholin-2-yl]methyl}acetamide]		
2.3 nM		Nc1ccc2c(c1)-c1nc(SCC(=O)NC[C@H]3CN(Cc4ccc(Cl)c(Cl)c4)CCO3)sc1C2 [Example 27, (2S)-(5-amino-8H-indeno[1,2-d]thiazol-2-ylthio)-N-{[4-(3,4-dichlorobenzyl)morpholin-2-yl]methyl}acetamide]		
34.3 nM	4.9 nM	O=C(CSc1ccc(C(=O)O)cc1)NC[C@H]1CN(Cc2ccc(Cl)c(Cl)c2)CCO1 [Example 37, (2S)-(4-carboxyphenylthio)-N-{[4-(3,4-dichlorobenzyl)morpholin-2-yl]methyl}acetamide]	3 mg/kg	3 mg/kg
1 nM	0.8 nM	Cc1nc(-c2csc(SCC(=O)NC[C@H]3CN(Cc4ccc(Cl)c(Cl)c4)CCO3)n2)no1 [Example 23, (2S)-N-{[4-(3,4-dichlorobenzyl)morpholin-2-yl]methyl}-[4-(5-methyl-1,2,4-oxadiazol-3-yl)thiazol-2-ylthio]acetamide hydrochloride]		

Source: patent US7935700B2, “Morpholine compound” (Mitsubishi Tanabe Pharma Corporation, priority 2004, dated 2011)
